Where two headings read alike, the source gives them in different places.
What was measured:
Assay type in all cases: in vivo
[1] = system: Phytophthora infestans (Tomatoes); conditions: 100 ppm a.i. foliar spray or root drench (approx. 40 ppm in dry soil), one or two days before inoculation
Septoria nodorum (Wheat) = assay: Foliar fungal disease test on plants: Septoria nodorum (Wheat); conditions: one or two days before inoculation
Experimental: (§1) The compounds were tested against a variety of foliar fungal diseases of plants. The technique employed was as follows.
(§2) The plants were grown in John Innes Potting Compost (No 1 or 2) in 4 cm diameter minipots. The test compounds were formulated either by bead milling with aqueous DISPERSOL T or as a solution in acetone or acetone/ethanol which was diluted to the required concentration immediately before use. […] The sprays were applied to maximum retention and the root drenches to a final concentration equivalent to approximately 40 ppm a.i. in dry soil. TWEEN 20 was added to give a final concentration of 0.05% when the sprays were applied to cereals.
(§3) For most of the tests the compounds were applied to the soil (roots) or to the foliage (by spraying) one or two days before the plant was inoculated with the disease. An exception was the test on Erysiphe graminis in which the plants were inoculated 24 hours before treatment. Foliar pathogens were applied by spray as zoosporangial suspensions onto the leaves of test plants. After inoculation, the plants were put into an appropriate environment to allow infection to proceed and then incubated until the disease was ready for assessment. The period between inoculation and assessment varied from four to fourteen days according to the disease and environment.
(§4) The disease level present (i.e. leaf area covered by actively sporulating disease) on each of the treated plants was recorded using the following assessment scale:
(§5) Each assessment was then expressed as a percentage of the level of disease present on the untreated control plants. This calculated value is referred to as a POCO (Percentage of Control) value. An example of a typical calculation is as follows:
(§6) Disease level on untreated control=90
(§7) Disese level on treated plant=30 [formula]
(§8) This calculated POCO value is then rounded to the nearest of the values in the 9-point assessment scale shown above. In this particular example, the POCO value would be rounded to 30. If the calculated POCO falls exactly mid-way between two of the points, it is rounded to the lower of the two values.

[2] = system: Pyricularia oryzae (Rice); conditions: one or two days before inoculation
[3] = system: Plasmopara viticola (Vines); assay: Foliar fungal disease test on plants: Plasmopara viticola (Vines); conditions: one or two days before inoculation
Experimental: as §1, §2, §3, §4, §5, §6, §7, §8

[4] = system: Erysiphe graminis tritici (Wheat); assay: Foliar fungal disease test on plants: Erysiphe graminis tritici (Wheat); conditions: 100 ppm a.i. foliar spray or root drench (approx. 40 ppm in dry soil); plants inoculated 24 hours before treatment
Experimental: as §1, §2, §3, §4, §5, §6, §7, §8

[5] = system: Venturia inaequalis (Apples); assay: Foliar fungal disease test on plants: Venturia inaequalis (Apples); conditions: 100 ppm a.i. foliar spray or root drench (approx. 40 ppm in dry soil), one or two days before inoculation
Experimental: as §1, §2, §3, §4, §5, §6, §7, §8

[6] = system: Thanatephorus cucumeries (Rice); assay: Foliar fungal disease test on plants: Thanatephorus cucumeries (Rice); conditions: one or two days before inoculation
Experimental: as §1, §2, §3, §4, §5, §6, §7, §8

[7] = system: Puccinia recondita (Wheat); assay: Foliar fungal disease test on plants: Puccinia recondita (Wheat); conditions: one or two days before inoculation
Experimental: as §1
The plants were grown in John Innes Potting Compost (No 1 or 2) in 4 cm diameter minipots. The test compounds were formulated either by bead milling with aqueous DISPERSOL T or as a solution in acetone or acetone/ethanol which was diluted to the required concentration immediately before use. The formulations (100 ppm active ingredient) were sprayed on to the foliage or applied to the roots of the plants in the soil. The sprays were applied to maximum retention and the root drenches to a final concentration equivalent to approximately 40 ppm a.i. in dry soil. TWEEN 20 was added to give a final concentration of 0.05% when the sprays were applied to cereals.
as §3, with “For most of the tests the compounds were applied to the soil (roots) or to the foliage (by spraying) one or two days before the plant was inoculated with the disease.” left out
as §4, §5, §6, §7, §8

[8] = 100 ppm a.i. foliar spray or root drench (approx. 40 ppm in dry soil)

| Structure (SMILES) | POCO (Percentage of Control) disease level, Phytophthora infestans (Tomatoes) [1] | POCO (Percentage of Control) disease level, Septoria nodorum (Wheat) (Septoria nodorum (Wheat); [8]) | POCO (Percentage of Control) disease level, Pyricularia oryzae (Rice) [2, 8] | POCO (Percentage of Control) disease level, Plasmopara viticola (Vines) [3, 8] | POCO (Percentage of Control) disease level, Erysiphe graminis tritici (Wheat) [4] | POCO (Percentage of Control) disease level, Venturia inaequalis (Apples) [5] | POCO (Percentage of Control) disease level, Thanatephorus cucumeries (Rice) [6, 8] | POCO (Percentage of Control) disease level, Puccinia recondita (Wheat) [7, 8] | POCO (Percentage of Control) disease level, Septoria nodorum (Wheat) (Septoria nodorum (Wheat); 10 ppm foliar spray only) | POCO (Percentage of Control) disease level, Pyricularia oryzae (Rice) ([2]; 10 ppm foliar spray only) | POCO (Percentage of Control) disease level, Puccinia recondita (Wheat) ([7]; 10 ppm foliar spray only) | POCO (Percentage of Control) disease level, Plasmopara viticola (Vines) ([3]; 10 ppm foliar spray only) | POCO (Percentage of Control) disease level, Thanatephorus cucumeries (Rice) ([6]; 10 ppm foliar spray only) |
| --- | --- | --- | --- | --- | --- | --- | --- | --- | --- | --- | --- | --- | --- |
| COC=C(C(=O)OC)c1ccccc1COC(=O)N(C)c1ccccc1F [3 (2)] | 0 (0 = 0% disease present) | 0 (0 = 0% disease present) | 0 (0 = 0% disease present) | 0 (0 = 0% disease present) | 0 (0 = 0% disease present) | 0 (0 = 0% disease present) | 0 (0 = 0% disease present) |  |  |  |  |  |  |
| CCN(C(=O)OCc1ccccc1C(=COC)C(=O)OC)c1ccccc1F [3 (3)] | 0 (0 = 0% disease present) | 0 (0 = 0% disease present) | 0 (0 = 0% disease present) | 0 (0 = 0% disease present) | 0 (0 = 0% disease present) | 0 (0 = 0% disease present) | 0 (0 = 0% disease present) |  |  |  |  |  |  |
| COC=C(C(=O)OC)c1ccccc1OC(=O)NCc1ccccc1 [4 (17)] |  | 60 (60 = 30.1-60% disease present) | 5 (5 = 3.1-5% disease present) | 0 (0 = 0% disease present) | 10 (10 = 5.1-10% disease present) |  | 0 (0 = 0% disease present) | 1 (1 = 0.1-1% disease present) |  |  |  |  |  |
| CCN(C(=O)OCc1ccccc1C(=COC)C(=O)OC)c1ccccc1 [5 (3)] | 5 (5 = 3.1-5% disease present) | 0 (0 = 0% disease present) | 0 (0 = 0% disease present) | 0 (0 = 0% disease present) | 0 (0 = 0% disease present) | 0 (0 = 0% disease present) | 5 (5 = 3.1-5% disease present) |  |  |  |  |  |  |
| COC=C(C(=O)OC)c1ccccc1OC(=O)Nc1ccccc1 [5 (17)] | 60 (60 = 30.1-60% disease present) | 60 (60 = 30.1-60% disease present) | 5 (5 = 3.1-5% disease present) | 0 (0 = 0% disease present) | 60 (60 = 30.1-60% disease present) | 1 (1 = 0.1-1% disease present) | 90 (90 and 94 = 60.1-100% disease present) |  |  |  |  |  |  |
| COC=C(C(=O)OC)c1ccccc1COC(=O)N(C)c1cccc([N+](=O)[O-])c1 [6 (2)] | 10 (10 = 5.1-10% disease present) | 0 (0 = 0% disease present) | 0 (0 = 0% disease present) | 0 (0 = 0% disease present) | 0 (0 = 0% disease present) | 0 (0 = 0% disease present) | 30 (30 = 20.1-30% disease present) |  |  |  |  |  |  |
| CCN(C(=O)OCc1ccccc1C(=COC)C(=O)OC)c1cccc([N+](=O)[O-])c1 [6 (3)] | 10 (10 = 5.1-10% disease present) | 0 (0 = 0% disease present) | 0 (0 = 0% disease present) | 0 (0 = 0% disease present) | 0 (0 = 0% disease present) | 0 (0 = 0% disease present) | 90 (90 and 94 = 60.1-100% disease present) |  |  |  |  |  |  |
| COC=C(C(=O)OC)c1ccccc1COC(=S)Nc1ccc(Cl)cc1 [11 (6)] |  |  |  |  |  |  |  |  | 60 (60 = 30.1-60% disease present) | 20 (20 and 24 = 10.1-20% disease present) | 20 (20 and 24 = 10.1-20% disease present) | 0 (0 = 0% disease present) | 90 (90 and 94 = 60.1-100% disease present) |
| COC=C(C(=O)OC)c1ccccc1COC(=O)Nc1ccc(F)cc1F [24 (1)] | 20 (20 and 24 = 10.1-20% disease present) | 60 (60 = 30.1-60% disease present) | 90 (90 and 94 = 60.1-100% disease present) | 0 (0 = 0% disease present) | 0 (0 = 0% disease present) | 0 (0 = 0% disease present) | 60 (60 = 30.1-60% disease present) |  |  |  |  |  |  |
| COC=C(C(=O)OC)c1ccccc1COC(=O)N(C)c1ccc(F)cc1F [24 (2)] | 0 (0 = 0% disease present) | 0 (0 = 0% disease present) | 0 (0 = 0% disease present) | 0 (0 = 0% disease present) | 0 (0 = 0% disease present) | 0 (0 = 0% disease present) | 0 (0 = 0% disease present) |  |  |  |  |  |  |
| COC=C(C(=O)OC)c1ccccc1COC(=O)Nc1ccc(OC)nc1 [32 (1)] | 30 (30 = 20.1-30% disease present) | 30 (30 = 20.1-30% disease present) | 90 (90 and 94 = 60.1-100% disease present) | 0 (0 = 0% disease present) | 20 (20 and 24 = 10.1-20% disease present) | 60 (60 = 30.1-60% disease present) | 90 (90 and 94 = 60.1-100% disease present) |  |  |  |  |  |  |
| COC=C(C(=O)OC)c1ccccc1COC(=O)Nc1ccccc1C(=O)OC [33 (1)] | 90 (90 and 94 = 60.1-100% disease present) | 90 (90 and 94 = 60.1-100% disease present) | 90 (90 and 94 = 60.1-100% disease present) | 90 (90 and 94 = 60.1-100% disease present) | 60 (60 = 30.1-60% disease present) | 0 (0 = 0% disease present) | 90 (90 and 94 = 60.1-100% disease present) |  |  |  |  |  |  |

Reference: patent US6465457B1 (priority 1991, dated 2002)
